Patent US8168651B2, “Protein kinase modulators” (Cylene Pharmaceuticals, Inc., priority 2008, dated 2012)
Read-outs that look alike come from different tables or passages of the source.

Experiments:
recombinant human PIM1 = recombinant human PIM1 (Homo sapiens (Human), UniProt P11309); experiment: PIM-1 kinase activity in cell-free in vitro assay; type: biochemical; settings: for inhibition at 0.5 µM: 500 nM compound, read-out: PIM-1: % inh 500 nM
[1] = system: HCT-116 human colorectal carcinoma cells; experiment: Cell-proliferation assay using Alamar Blue dye; type: cell-based; settings: Homo sapiens, HCT-116, HCT-116, second HCT-116 column (c8); read-out: HCT-116 (uM), cell proliferation modulatory activity;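 further: cells exposed to compound for about 4 days, then Alamar Blue added and dye fluorescence read after about 4 h, compared with medium-only control wells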

recombinant human PIM1, sequence (P11309 whole entry): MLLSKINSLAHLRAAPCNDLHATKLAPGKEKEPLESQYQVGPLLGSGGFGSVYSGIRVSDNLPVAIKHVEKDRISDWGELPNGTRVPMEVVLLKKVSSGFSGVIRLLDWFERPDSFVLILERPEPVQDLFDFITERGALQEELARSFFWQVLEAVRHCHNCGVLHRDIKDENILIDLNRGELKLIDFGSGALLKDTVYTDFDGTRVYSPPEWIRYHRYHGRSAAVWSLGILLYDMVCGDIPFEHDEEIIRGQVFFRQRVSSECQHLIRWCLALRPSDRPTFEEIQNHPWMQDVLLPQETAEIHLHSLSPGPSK

inhibition at 0.5 µM (recombinant human PIM1; cell-free assay) [%] | IC50 [1] [µM] | IC50 (recombinant human PIM1; Table 45) [nM] | SMILES | further results
-10 | 2.63 | – | CN1CCCN(c2nc3cc(C#N)ccc3c3sccc23)CC1 | –
-23.8 | > 10 | – | N#Cc1ccc2c(c1)nc(NCCN1CCOCC1)c1ccsc12 | –
-17.6 | 9.38 | – | N#Cc1ccc2c(c1)nc(N1CCN(CCO)CC1)c1ccsc12 | –
-2.91 | > 10 | – | N#Cc1ccc2c(c1)nc(NCCO)c1ccsc12 | –
-16.5 | 3.86 | – | CN(C)C1CCN(c2nc3cc(C#N)ccc3c3sccc23)C1 (stereo not drawn) | –
-22.4 | 2.2 | – | N#Cc1ccc2c(c1)nc(NCCN1CCCC1)c1ccsc12 | –
40.1 | > 10 | – | CN1CCN(c2nc3cc(C(=O)O)ccc3c3cnccc23)CC1 | –
-23.1 | > 10 | – | Cc1cnc(CNC(=O)c2ccc3c(c2)nc(N2CCN(C)CC2)c2ccncc23)cn1 | –
-10.9 | > 10 | – | CN1CCN(c2nc3cc(C(=O)NNc4ccccn4)ccc3c3sccc23)CC1 | –
-14.1 | > 10 | – | CN1CCN(c2nc3cc(C(=O)NCc4ccncc4)ccc3c3sccc23)CC1 | –
-16 | > 10 | – | CN1CCN(c2nc3cc(C(=O)NCc4cccnc4)ccc3c3sccc23)CC1 | –
-3.62 | > 10 | – | CC(C)OCCNC(=O)c1ccc2c(c1)nc(N1CCN(C)CC1)c1ccsc12 | –
11 | > 10 | – | CN1CCN(c2nc3cc(C(=O)NCC4CCCO4)ccc3c3sccc23)CC1 (stereo not drawn) | –
-12.7 | > 10 | – | CN1CCN(c2nc3cc(C(=O)NC4CC4)ccc3c3sccc23)CC1 | –
-0.965 | > 10 | – | CONC(=O)c1ccc2c(c1)nc(N1CCN(C)CC1)c1ccsc12 | –
-14.5 | > 10 | – | CN1CCN(c2nc3cc(C(=O)NCc4nccn4C)ccc3c3sccc23)CC1 | –
-22.5 | > 10 | – | CN1CCN(c2nc3cc(C(=O)NCc4cncn4C)ccc3c3sccc23)CC1 | –
58.3 | > 10 | – | Cn1nc(-c2ccccc2)cc1Nc1nc2cc(C(=O)O)ccc2c2cnccc12 | IC50 (recombinant human PIM1; cell-free assay): 914 nM
12.5 | > 10 | – | COC(=O)c1ccc2c(c1)nc(Nc1ccccc1C)c1nc(SC)ncc12 | –
-2.36 | – | – | O=C(O)c1ccc2c(c1)nc(N1CCN(c3cnccn3)CC1)c1ccncc12 | –
73.6 | > 10 | – | CC(=O)Nc1cccc(Nc2nc3cc(C(=O)O)ccc3c3cnccc23)c1 | IC50 (recombinant human PIM1; cell-free assay): 369 nM
83.4 | > 10 | – | NS(=O)(=O)c1cccc(Nc2nc3cc(C(=O)O)ccc3c3cnccc23)c1 | IC50 (recombinant human PIM1; cell-free assay): 397 nM
– | – | < 500 | COCCOc1cccc(Nc2nc3c(C(N)=O)cccc3c3cnccc23)c1 | –

inhibition at 0.5 µM (recombinant human PIM1; cell-free assay) [%] | IC50 [1] [µM] | IC50 (recombinant human PIM1; Table 45) [nM] | SMILES | further results
– | – | < 1000 | OCc1cccc2c1nc(Nc1cccc(Cl)c1)c1ccncc12 | –
– | – | > 1100 | O=C(O)c1cccc2c1nc(Nc1cccc(Cl)c1)c1cnccc12 | –
– | – | > 1100 | CN(C)CCNC(=O)c1cccc2c1nc(Nc1cccc(Cl)c1)c1ccncc12 | –
– | – | > 1100 | COCCNC(=O)c1cccc2c1nc(Nc1cccc(Cl)c1)c1ccncc12 | –
– | – | > 1100 | COC(=O)c1cccc2c1nc(Nc1cccc(Cl)c1)c1ccncc12 | –
– | – | > 1100 | CN(C)C(=O)c1cccc2c1nc(Nc1cccc(Cl)c1)c1ccncc12 | –
– | – | > 1100 | O=C(NCc1ccccc1)c1cccc2c1nc(Nc1cccc(Cl)c1)c1ccncc12 | –
– | – | > 1100 | O=C(c1cccc2c1nc(Nc1cccc(Cl)c1)c1ccncc12)N1CCOCC1 | –
– | – | > 1100 | O=C(NC1CC1)c1cccc2c1nc(Nc1cccc(Cl)c1)c1ccncc12 | –
– | – | > 1100 | O=C(Nc1ccccc1)c1cccc2c1nc(Nc1cccc(Cl)c1)c1ccncc12 | –
– | – | > 1100 | CONC(=O)c1cccc2c1nc(Nc1cccc(Cl)c1)c1ccncc12 | –
– | – | < 5000 | NNC(=O)c1cccc2c1nc(Nc1cccc(Cl)c1)c1ccncc12 | –
– | – | > 1100 | Clc1cccc(Nc2nc3c(-c4nnco4)cccc3c3cnccc23)c1 | –
– | – | > 1100 | N#Cc1cccc2c1nc(Nc1cccc(Cl)c1)c1ccncc12 | –
– | – | – | NCc1ccc(Nc2nc3c(-c4nnc[nH]4)cccc3c3cnccc23)c(Cl)c1 | IC50 (recombinant human PIM1): < 100 nM
– | – | – | CN1CCN(c2ccc(Nc3nc4c(-c5nnc[nH]5)cccc4c4cnccc34)cc2)CC1 | IC50 (recombinant human PIM1): < 500 nM
– | – | – | c1cc(-c2nnc[nH]2)c2nc(N3CCOCC3)c3ccncc3c2c1 | IC50 (recombinant human PIM1): 3970 nM
– | – | > 1100 | COC(=O)c1cccc2c1nc(Cl)c1ccncc12 [drawing 2270] | –
– | – | > 1100 | O=C(O)c1cccc2c1nc(Nc1cccc(Cl)c1)c1ccncc12 [drawing 2271] | –
– | – | > 1100 | COC(=O)c1cccc2c1nc(Nc1ccccc1)c1ccncc12 [drawing 2272] | –
– | – | > 1100 | O=C(O)c1cccc2c1nc(Nc1ccccc1)c1ccncc12 [drawing 2273] | –
– | – | > 1100 | CNC(=O)c1cccc2c1nc(Nc1cccc(Cl)c1)c1ccncc12 [drawing 2277] | –
